Source: patent US20100029773A1 (priority 2004, published 2010)

Experiments:
α-synuclein = α-synuclein (Homo sapiens, UniProt P37840); assay: DMSO-induced α-synuclein aggregation in vitro (fluorescence cross-correlation and SIFT analysis); format: biochemical; conditions: 10 μM in 1% DMSO, 3-5 h
RML scrapie = conditions: for prolongation of the median of the survival time versus vehicle (75% DMSO) group: daily intraperitoneal, days 102-115 post intracerebral RML infection, 125-500 nmol
[1] = biological target: association between PrPC and PrPSc (recombinant mouse PrP binding to PrP-Sc aggregates from human CJD brain) (Mus musculus, UniProt P04925); set-up: species or system mouse rPrP; human PrP-Sc; conditions: for classification in primary SIFT screening: primary hit = at least approx. 50% of the effect of 17 μM DOSPA on sum of bins in green sectors 1-5; for validation in SIFT dilution series (dose-dependent inhibition): six point dilution series 0.1-100 mM (so in the source)
association between PrPC and PrPSc (recombinant mouse PrP binding to PrP-Sc aggregates from human CJD brain), sequence (P04925 23-231 limits assumed): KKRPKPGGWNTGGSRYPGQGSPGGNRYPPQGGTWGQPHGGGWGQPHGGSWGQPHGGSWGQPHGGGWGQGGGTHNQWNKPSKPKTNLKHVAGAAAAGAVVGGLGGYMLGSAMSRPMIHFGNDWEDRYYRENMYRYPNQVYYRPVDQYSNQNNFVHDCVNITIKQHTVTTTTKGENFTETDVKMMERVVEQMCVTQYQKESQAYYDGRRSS

[2] = tested on: PrPSc in scrapie-infected N2a (ScN2a) cells; assay: cells; format: cell-based, mouse; conditions: for EC50: Mus musculus, ScN2a, read-out: EC50 of clearance of PrPSc from the cells; for activity against PrPSc propagation in cell culture: ScN2a cells, first screening at 15 mM (so in the source), 2 days
[3] = tested on: PrP-Sc deposits in spleen; set-up: species or system C57Bl6 mice; conditions: mouse, in vivo
[4] = tested on: PrPSc in scrapie-infected N2a (ScN2a) cells; conditions: cell culture; cited from earlier work

With `O=C(NN=Cc1ccc2ccccc2c1)c1ccc(O)c(O)c1` [293G02, 3,4-dihydroxy-N′-(naphthalen-2-ylmethylene)-benzohydrazide] the “inhibition of formation of multimeric α-synuclein complexes” value (α-synuclein) was “inhibiting the formation of multimeric α-synuclein complexes to a large extent”, the “prolongation of the median of the survival time versus vehicle (75% DMSO) group” value (shortened to “prolongation of the median … (75% DMSO) group”) (RML scrapie) was 9.5 days and the “classification in primary SIFT screening” value [1] was “primary SIFT hits”. The “validation in SIFT dilution series (dose-dependent inhibition)” value (shortened to “validation … (dose-dependent inhibition)”) [1] was “validated in SIFT dilution series”, the EC50 [2] was roughly 2 µM and the “activity against PrPSc propagation in cell culture” value [2] was “strongest cell culture activity”. The “PrP-Sc deposits in spleen tissue” value [3] was “no signs of PrP-Sc deposition could be detected”.
With `O=C(NN=Cc1ccc2ccccc2c1)c1ccccc1O` [297F03, 2-hydroxy-N′-(naphthalen-2-ylmethylene)-benzohydrazide] the “classification in primary SIFT screening” value [1] was “primary SIFT hits” and the “validation … (dose-dependent inhibition)” value [1] was “validated in SIFT dilution series”.
In the case of `O=C(NN=Cc1ccc2ccccc2c1)c1ccc(O)cc1O` [301C09, 2,4-dihydroxy-N′-(naphthalen-2-ylmethylene)-benzohydrazide], the “classification in primary SIFT screening” value [1] is reported as “primary SIFT hits” and the “validation … (dose-dependent inhibition)” value [1] is reported as “validated in SIFT dilution series”.
For `O=C(NN=Cc1ccc(Cl)cc1Cl)c1ccc(O)c(O)c1` [305E04, 3,4-dihydroxy-N′-(2,4-dichlorobenzylidene)-benzohydrazide], the “classification in primary SIFT screening” value [1] was “primary SIFT hits” and the “validation … (dose-dependent inhibition)” value [1] was “validated in SIFT dilution series”.
With `O=C(NN=Cc1ccc2ccccc2c1)c1cccc(Cl)c1` [306H03, 3-chloro-N′-(naphthalen-2-ylmethylene)-benzohydrazide] the “classification in primary SIFT screening” value [1] was “primary SIFT hits” and the “validation … (dose-dependent inhibition)” value [1] was “validated in SIFT dilution series”.
For `COc1ccc(C=NNC(=O)c2cccc(F)c2)cc1Br` [309F02, 3-fluoro-N′-(3-bromo-4-methoxybenzylidene)-benzohydrazide], the “prolongation of the median … (75% DMSO) group” value (RML scrapie) was 11.5 days, the “classification in primary SIFT screening” value [1] was “primary SIFT hits” and the “validation … (dose-dependent inhibition)” value [1] was “validated in SIFT dilution series”.
For `COc1cc(C=NN=C(N)N)ccc1OCc1c(C)c(C)c(Br)c(C)c1C` [313B02, 1-(4-(4-bromo-2,3,5,6-tetramethylbenzyloxy)-3-methoxybenzylidene)-2-diaminomethylene-hydrazine], the “prolongation of the median … (75% DMSO) group” value (RML scrapie) was “no such prolongation”, the “toxic signs during treatment” value (RML scrapie; intraperitoneal 50 μl per day of 5 mM, reduced to 2.5 mM after day 4) was “toxic signs” and the “classification in primary SIFT screening” value [1] was “primary SIFT hits”. For the same molecule, the “validation … (dose-dependent inhibition)” value [1] was “validated in SIFT dilution series” and the EC50 [2] was roughly 6 µM.
For `CCCCCCCC/C=C\CCCCCCCCOCC(C[N+](C)(C)CCNC(=O)C(CCCNCCCN)NCCCN)OCCCCCCCC/C=C\CCCCCCCC.Cl.Cl.Cl.Cl.[Cl-]` (centres unmarked) [DOSPA, reference compound], the “inhibition of PrPSc formation in scrapie-infected mouse cells (previous finding)” value [4] is listed as “inhibit PrPSc formation”, the “SIFT signal in sectors of aggregates predominantly labelled with green rPrP” value ([1]; 17 μM) is listed as “reduced SIFT signal” and the “activity against PrPSc propagation in cell culture” value [2] is listed as “PrPSc is cleared from the infected cells”.
